Reference: ChEMBL document CHEMBL1909046, “DrugMatrix in vitro pharmacology data”

Biological target: T1, Progesterone receptor (Bos taurus, UniProt Q690N0)
T1 sequence (Q690N0 whole entry): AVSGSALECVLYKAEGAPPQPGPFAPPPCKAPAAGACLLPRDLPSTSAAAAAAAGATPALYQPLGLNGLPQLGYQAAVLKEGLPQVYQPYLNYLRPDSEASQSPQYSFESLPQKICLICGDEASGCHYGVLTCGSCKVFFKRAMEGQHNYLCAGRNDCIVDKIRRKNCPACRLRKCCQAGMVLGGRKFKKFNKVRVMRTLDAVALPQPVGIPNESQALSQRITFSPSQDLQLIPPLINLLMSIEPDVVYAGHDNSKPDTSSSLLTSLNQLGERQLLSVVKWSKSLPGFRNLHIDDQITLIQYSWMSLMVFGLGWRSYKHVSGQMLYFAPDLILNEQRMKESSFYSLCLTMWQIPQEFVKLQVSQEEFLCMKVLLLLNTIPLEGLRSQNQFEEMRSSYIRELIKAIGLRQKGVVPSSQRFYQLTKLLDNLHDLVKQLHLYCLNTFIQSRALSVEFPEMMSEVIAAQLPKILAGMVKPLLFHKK
Experiment: DRUGMATRIX: Progesterone radioligand binding (ligand: [3H] R-5020)
Type: tissue-based, Uterus
Conditions: Not Active = under 50% inhibition at 10 µM
In the case of COc1cccc2c1C(=O)c1c(O)c3c(c(O)c1C2=O)C[C@@](O)(C(C)=O)C[C@@H]3O[C@H]1C[C@H](N)[C@H](O)[C@H](C)O1 [DAUNORUBICIN], the IC50 was “Not Active”.
For O=C(O)c1cc(-c2ccc(F)cc2F)ccc1O [DIFLUNISAL], the IC50 was “Not Active”.
With C[S+](C)[O-] [DIMETHYL SULFOXIDE] the IC50 was “Not Active”.
In the case of CC1=NN(c2ccccc2)C(=O)C1 [EDARAVONE], the IC50 was “Not Active”.

Tested on: not listed separately
Experiment: DRUGMATRIX: ATPase, Na+/K+ enzyme inhibition (substrate: ATP)
Type: tissue-based, Sus scrofa, Heart
Conditions: Not Active = under 50% inhibition at 10 µM
For COc1cccc2c1C(=O)c1c(O)c3c(c(O)c1C2=O)C[C@@](O)(C(C)=O)C[C@@H]3O[C@H]1C[C@H](N)[C@H](O)[C@H](C)O1 [DAUNORUBICIN], the IC50 was “Not Active” and the Ki was “Not Active”.
With O=C(O)c1cc(-c2ccc(F)cc2F)ccc1O [DIFLUNISAL] the IC50 was “Not Active” and the Ki was “Not Active”.
In the case of C[S+](C)[O-] [DIMETHYL SULFOXIDE], the IC50 was “Not Active” and the Ki was “Not Active”.
In the case of CC1=NN(c2ccccc2)C(=O)C1 [EDARAVONE], the IC50 was “Not Active” and the Ki was “Not Active”.

Biological target: T2, Vasoactive intestinal polypeptide receptor 1 (Homo sapiens, UniProt P32241); further: in other assays of this panel Not Active means under 50% inhibition at 10 µM
T2 sequence (P32241 whole entry): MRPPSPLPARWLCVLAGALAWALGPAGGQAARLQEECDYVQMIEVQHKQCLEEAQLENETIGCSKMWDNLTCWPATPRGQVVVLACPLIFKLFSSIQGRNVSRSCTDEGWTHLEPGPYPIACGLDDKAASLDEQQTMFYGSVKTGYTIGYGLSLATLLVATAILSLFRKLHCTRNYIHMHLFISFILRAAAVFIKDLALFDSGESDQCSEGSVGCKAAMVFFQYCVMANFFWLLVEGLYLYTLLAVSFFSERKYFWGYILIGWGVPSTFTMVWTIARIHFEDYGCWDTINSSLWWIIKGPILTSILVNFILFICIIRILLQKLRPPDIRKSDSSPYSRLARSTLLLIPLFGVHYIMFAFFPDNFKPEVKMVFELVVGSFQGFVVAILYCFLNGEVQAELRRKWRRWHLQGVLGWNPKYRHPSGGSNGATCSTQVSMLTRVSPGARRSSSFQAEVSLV
Type: cell membranes, Membrane
Conditions: ht-29
In the case of COc1cccc2c1C(=O)c1c(O)c3c(c(O)c1C2=O)C[C@@](O)(C(C)=O)C[C@@H]3O[C@H]1C[C@H](N)[C@H](O)[C@H](C)O1 [DAUNORUBICIN], the IC50 was “Not Active”.
With O=C(O)c1cc(-c2ccc(F)cc2F)ccc1O [DIFLUNISAL] the IC50 was “Not Active”.
In the case of C[S+](C)[O-] [DIMETHYL SULFOXIDE], the IC50 was “Not Active”.
With CC1=NN(c2ccccc2)C(=O)C1 [EDARAVONE] the IC50 was “Not Active”.

Biological target: T3, Cytochrome P450 1A2 (Homo sapiens, UniProt P05177); further: in other assays of this panel Not Active means under 50% inhibition at 10 µM
T3 sequence (P05177 whole entry): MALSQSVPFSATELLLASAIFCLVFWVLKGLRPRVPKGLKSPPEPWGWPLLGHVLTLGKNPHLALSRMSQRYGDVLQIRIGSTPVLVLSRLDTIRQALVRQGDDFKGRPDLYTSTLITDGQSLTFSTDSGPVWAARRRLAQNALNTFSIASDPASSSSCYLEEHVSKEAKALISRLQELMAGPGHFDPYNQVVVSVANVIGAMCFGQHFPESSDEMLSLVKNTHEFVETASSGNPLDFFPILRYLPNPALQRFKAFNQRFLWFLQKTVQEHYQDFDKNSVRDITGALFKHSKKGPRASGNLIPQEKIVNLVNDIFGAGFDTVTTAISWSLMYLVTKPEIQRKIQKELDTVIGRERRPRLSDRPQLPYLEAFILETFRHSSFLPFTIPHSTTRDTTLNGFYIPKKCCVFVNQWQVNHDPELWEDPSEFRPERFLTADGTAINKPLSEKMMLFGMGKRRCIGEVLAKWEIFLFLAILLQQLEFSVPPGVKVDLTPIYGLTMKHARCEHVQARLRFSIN
Conditions: bti-tn-5b1-4
For COc1cccc2c1C(=O)c1c(O)c3c(c(O)c1C2=O)C[C@@](O)(C(C)=O)C[C@@H]3O[C@H]1C[C@H](N)[C@H](O)[C@H](C)O1 [DAUNORUBICIN], the IC50 was “Not Active” and the Ki was “Not Active”.
For O=C(O)c1cc(-c2ccc(F)cc2F)ccc1O [DIFLUNISAL], the IC50 was “Not Active” and the Ki was “Not Active”.
For C[S+](C)[O-] [DIMETHYL SULFOXIDE], the IC50 was “Not Active” and the Ki was “Not Active”.
In the case of CC1=NN(c2ccccc2)C(=O)C1 [EDARAVONE], the IC50 was “Not Active” and the Ki was “Not Active”.

Biological target: Nitric oxide synthase 1 (Rattus norvegicus, UniProt P29476); further: in other assays of this panel Not Active means under 50% inhibition at 10 µM
Sequence (P29476 whole entry): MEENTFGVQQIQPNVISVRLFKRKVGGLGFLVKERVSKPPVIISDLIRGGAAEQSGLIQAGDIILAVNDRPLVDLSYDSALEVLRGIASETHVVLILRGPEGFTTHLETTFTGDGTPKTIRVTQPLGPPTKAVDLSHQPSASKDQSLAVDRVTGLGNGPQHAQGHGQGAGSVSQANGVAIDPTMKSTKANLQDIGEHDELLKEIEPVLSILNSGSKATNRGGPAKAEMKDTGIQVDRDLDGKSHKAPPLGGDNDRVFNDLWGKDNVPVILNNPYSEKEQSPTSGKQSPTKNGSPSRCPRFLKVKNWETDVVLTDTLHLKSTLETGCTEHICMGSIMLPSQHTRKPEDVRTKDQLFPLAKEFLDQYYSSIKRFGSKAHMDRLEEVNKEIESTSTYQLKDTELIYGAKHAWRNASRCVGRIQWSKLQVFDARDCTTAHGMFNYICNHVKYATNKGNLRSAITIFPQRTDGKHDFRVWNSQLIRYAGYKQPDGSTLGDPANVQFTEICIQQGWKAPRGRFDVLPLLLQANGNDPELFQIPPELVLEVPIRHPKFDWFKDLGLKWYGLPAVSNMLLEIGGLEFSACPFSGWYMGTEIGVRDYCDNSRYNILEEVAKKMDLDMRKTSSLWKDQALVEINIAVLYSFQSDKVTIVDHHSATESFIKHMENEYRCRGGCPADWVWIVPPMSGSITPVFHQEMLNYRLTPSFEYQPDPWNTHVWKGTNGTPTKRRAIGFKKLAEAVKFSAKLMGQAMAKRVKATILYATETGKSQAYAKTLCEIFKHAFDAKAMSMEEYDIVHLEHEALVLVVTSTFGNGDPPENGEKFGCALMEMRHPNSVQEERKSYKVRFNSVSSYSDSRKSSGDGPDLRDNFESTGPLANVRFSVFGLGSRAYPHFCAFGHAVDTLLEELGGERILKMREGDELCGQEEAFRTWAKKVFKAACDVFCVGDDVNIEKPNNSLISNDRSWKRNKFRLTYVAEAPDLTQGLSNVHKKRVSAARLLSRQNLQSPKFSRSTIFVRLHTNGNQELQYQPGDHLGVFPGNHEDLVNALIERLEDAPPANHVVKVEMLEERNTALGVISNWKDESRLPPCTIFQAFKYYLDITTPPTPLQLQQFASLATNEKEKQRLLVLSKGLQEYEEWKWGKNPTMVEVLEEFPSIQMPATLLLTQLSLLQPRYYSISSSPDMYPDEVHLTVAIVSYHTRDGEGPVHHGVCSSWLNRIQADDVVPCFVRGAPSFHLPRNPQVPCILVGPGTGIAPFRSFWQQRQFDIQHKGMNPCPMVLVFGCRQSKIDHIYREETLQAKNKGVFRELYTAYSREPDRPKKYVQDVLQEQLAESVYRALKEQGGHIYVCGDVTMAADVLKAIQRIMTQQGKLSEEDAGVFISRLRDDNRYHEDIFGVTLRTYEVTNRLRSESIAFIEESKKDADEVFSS
Type: tissue-based, Cerebellum
Conditions: not given
For COc1cccc2c1C(=O)c1c(O)c3c(c(O)c1C2=O)C[C@@](O)(C(C)=O)C[C@@H]3O[C@H]1C[C@H](N)[C@H](O)[C@H](C)O1 [DAUNORUBICIN], the IC50 was “Not Active”.
With O=C(O)c1cc(-c2ccc(F)cc2F)ccc1O [DIFLUNISAL] the IC50 was “Not Active”.
For C[S+](C)[O-] [DIMETHYL SULFOXIDE], the IC50 was “Not Active”.
With CC1=NN(c2ccccc2)C(=O)C1 [EDARAVONE] the IC50 was “Not Active”.

Biological target: T4, Receptor-type tyrosine-protein phosphatase C (Homo sapiens, UniProt P08575);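 further: inhibition of CD45 enzyme activity measured using DiFMUP as substrate; in other assays of this panel Not Active means under 50% inhibition at 10 µM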
T4 sequence (P08575 whole entry): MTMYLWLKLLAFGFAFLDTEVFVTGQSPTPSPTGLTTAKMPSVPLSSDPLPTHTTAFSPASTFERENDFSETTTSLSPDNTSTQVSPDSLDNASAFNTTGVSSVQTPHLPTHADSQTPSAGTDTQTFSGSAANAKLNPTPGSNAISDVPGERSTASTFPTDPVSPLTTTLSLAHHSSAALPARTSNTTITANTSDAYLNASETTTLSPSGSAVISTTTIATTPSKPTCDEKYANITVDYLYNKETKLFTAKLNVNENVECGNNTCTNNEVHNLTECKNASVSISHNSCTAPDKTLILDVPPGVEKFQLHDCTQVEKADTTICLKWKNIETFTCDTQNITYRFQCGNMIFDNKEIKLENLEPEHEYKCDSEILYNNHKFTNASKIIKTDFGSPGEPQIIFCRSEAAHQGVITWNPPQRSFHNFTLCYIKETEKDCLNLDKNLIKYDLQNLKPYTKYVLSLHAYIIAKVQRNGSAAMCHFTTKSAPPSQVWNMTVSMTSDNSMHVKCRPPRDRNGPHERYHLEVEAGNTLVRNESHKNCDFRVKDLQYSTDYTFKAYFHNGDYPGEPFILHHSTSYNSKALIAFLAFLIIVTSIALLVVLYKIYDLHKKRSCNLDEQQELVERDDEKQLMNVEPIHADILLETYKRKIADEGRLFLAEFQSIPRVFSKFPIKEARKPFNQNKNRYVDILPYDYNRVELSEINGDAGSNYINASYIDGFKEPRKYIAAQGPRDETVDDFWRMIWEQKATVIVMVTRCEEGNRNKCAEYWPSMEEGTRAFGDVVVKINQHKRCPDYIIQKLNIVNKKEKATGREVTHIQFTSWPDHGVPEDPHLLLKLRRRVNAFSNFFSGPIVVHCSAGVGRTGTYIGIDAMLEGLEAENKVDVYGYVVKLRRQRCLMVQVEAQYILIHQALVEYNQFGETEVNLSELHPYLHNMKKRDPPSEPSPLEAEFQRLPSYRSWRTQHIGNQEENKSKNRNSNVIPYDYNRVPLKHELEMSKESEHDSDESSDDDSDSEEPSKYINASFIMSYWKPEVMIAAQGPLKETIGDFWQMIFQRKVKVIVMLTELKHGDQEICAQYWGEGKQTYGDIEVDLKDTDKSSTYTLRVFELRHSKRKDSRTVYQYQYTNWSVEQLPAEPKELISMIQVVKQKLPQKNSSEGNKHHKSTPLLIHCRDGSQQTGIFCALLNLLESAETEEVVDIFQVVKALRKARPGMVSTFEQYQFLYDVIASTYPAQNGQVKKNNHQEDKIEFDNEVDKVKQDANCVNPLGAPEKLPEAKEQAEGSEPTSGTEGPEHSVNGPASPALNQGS
Parameters: species or system Escherichia coli
Conditions: not given
In the case of COc1cccc2c1C(=O)c1c(O)c3c(c(O)c1C2=O)C[C@@](O)(C(C)=O)C[C@@H]3O[C@H]1C[C@H](N)[C@H](O)[C@H](C)O1 [DAUNORUBICIN], the IC50 was “Not Active”.
For O=C(O)c1cc(-c2ccc(F)cc2F)ccc1O [DIFLUNISAL], the IC50 was “Not Active”.
For C[S+](C)[O-] [DIMETHYL SULFOXIDE], the Ki was “Not Active”.
With CC1=NN(c2ccccc2)C(=O)C1 [EDARAVONE] the IC50 was “Not Active”.
